# Measured values published in patent publication US6703398B2, “Orally administered analgesic compositions containing nalbuphine” (priority 2001, dated 2004).
# What was measured:
# [1] = Efficacy and bioavailability study of nalbuphine ester prodrugs as orally administered compositions; assay type: in vivo, animals and humans; details: oral composition with oily substance, effect of adding the solubility-assisting agent; comparison among active ingredients
# Excerpt: Each and every one of these nalbuphine and/or nalbuphine ester prodrugs as listed above has been tested for suitability as an orally administered pharmaceutical composition for use in animals and humans. The efficacy and bioavailability of these nalbuphine ester prodrugs have been studied.
# [2] = Pharmacokinetics of nalbuphine in beagles after oral administration of SDN compositions; details: 30 mg/kg of SDN; for AUC/Dose: nalbuphine in plasma, 30 mg/kg
# Protocol: To assess the effects of various pharmaceutical compositions of the present invention on beagles. The compositions were orally administered into beagles, and the concentration of nalbuphine in vivo was monitored in the animals as follows:
# 2, In each study group, the pharmaceutical composition that contained 30 mg/kg of SDN were orally given to beagles.
# 4. The blood samples were analyzed by high performance liquid chromatography (HPLC) to determine the pharmacokinetics (including the half-life and bioavailability of nalbuphine) in vivo.
# [3] = literature; cited from earlier work
Compound,bioavailability and half-life of nalbuphine in blood [1],"concentration of nalbuphine in plasma 1-3 hours after the oral uptake of SDN ([2]; FIG. 1, comparison among groups)","concentration of nalbuphine in plasma after the peak ([2]; FIG. 1, later time points)","Bioavailability ([2]; bioavailability of nalbuphine, means ± S.E.)","Nalbuphine Half-Life ([2]; nalbuphine in plasma by HPLC, means ± S.E.)",AUC/Dose ([2]; means ± S.E.),"AUC/Dose ([2]; means ± S.E., listed as SDN Powder Group)",bioavailability through oral administration [3]
"O=C(CCCCCCCCC(=O)Oc1ccc2c3c1O[C@H]1[C@@H](O)CC[C@@]4(O)[C@@H](C2)N(CC2CCC2)CC[C@]314)Oc1ccc2c3c1O[C@H]1[C@@H](O)CC[C@@]4(O)[C@@H](C2)N(CC2CCC2)CC[C@]314 [SDN Powder, sebacoyl dinalbuphine ester]",the best in terms of longer half-life and greater bioavailability rate,much less than the other two groups,decreased substantially,14.6%,8.1 ± 1.6 h,39 ± 11 ng·kg·h/mL/mg,39 ng·kg·h/mL/mg,
nalbuphine hydrochloride [nalbuphine-HCl],,,,,,,,less than 5%
